One experiment addresses T1, HCV NS3 protease domain (Hepatitis C virus genotype 1b, UniProt Q9WMX2).
T1 construct: The first 181 amino acids of NS3 (residues 1027-1207 of the viral polyprotein); hexa-histidine (C); made in house; host or cells: E. coli BL21/DE3 pLysS
The experiment can be described thus: biochemical. As to conditions: Enzyme Assay 1 (HCV NS3 Protease Domain Peptide Cleavage Assay) activity, apparent Ki class.

For experiment [1], the target named is T2, full-length hepatitis C viral protein NS3•4A (Hepatitis C virus genotype 1a, UniProt P27958).
T2 construct: hexa-histidine (N); made in house; host or cells: Sf9 insect cells (baculovirus, pVL1392)
The experiment can be described thus: biochemical. Further details: species or system HCV sub-type strain 1a. To be noted: Enzyme Assay 2 (HCV NS3 Peptide Cleavage Assay) activity, apparent Ki class.

The values below come from patent US7964624B1, “Inhibitors of serine proteases” (priority 2005, dated 2011).

A value given as a limit tells only on which side of the number the result lay.

As for `CCC[C@H](NC(=O)[C@@H]1C[C@]2(CC(c3cccc(Cl)c3)=NO2)CN1C(=O)[C@H](CSC(C)(C)C)NC(=O)CC1CCCCC1)C(=O)C(=O)NC1CC1` [Compound 437], the Ki (at HCV NS3 protease domain; in experiment [1]) was above 500 nM each time.

Turning to `C=C[C@@H]1C[C@]1(NC(=O)[C@@H]1C[C@]2(CC(CC)=NO2)CN1C(=O)[C@@H](NC(=O)OC1CCCC1)C(C)(C)C)C(=O)NS(=O)(=O)C1CC1` [Compound 438], the Ki on HCV NS3 protease domain was above 500 nM; in experiment [1] it was 100 to 500 nM.

Regarding `C=C[C@@H]1C[C@]1(NC(=O)[C@@H]1C[C@]2(CC(c3cccc(Cl)c3)=NO2)CN1C(=O)[C@@H](NC(=O)OC(C)(C)C)C(C)(C)C)C(=O)O` [Compound 439], the Ki (on HCV NS3 protease domain; in experiment [1]) was above 500 nM throughout.

Regarding `CCC[C@H](NC(=O)[C@@H]1C[C@]2(CC(c3cccc(Cl)c3)=NO2)CN1C(=O)[C@@H](NC(=O)CC1CCCCC1)C(C)(C)C)C(=O)C(=O)NCc1ccco1` [Compound 441], the Ki on HCV NS3 protease domain was above 500 nM; in experiment [1] it was 100 to 500 nM.

Take `CCC[C@H](NC(=O)[C@@H]1C[C@]2(CC(c3cccc(Cl)c3)=NO2)CN1C(=O)[C@@H](NC(=O)CC1C[C@@H](C)O[C@@H](C)C1)C(C)(C)C)C(=O)C(=O)NC1CC1` (some centres unmarked) [Compound 442]: the figures for the Ki (on HCV NS3 protease domain; in experiment [1]) were 100 to 500 nM and below 100 nM, respectively.

For the compound `C=C[C@@H]1C[C@]1(NC(=O)[C@@H]1C[C@]2(CC(c3cccc(Cl)c3)=NO2)CN1C(=O)[C@@H](NC(=O)OC1CCCC1)C(C)(C)C)C(=O)O` [Compound 443], the Ki (at HCV NS3 protease domain; in experiment [1]) was above 500 nM in each case.

Turning to `CCC[C@H](NC(=O)[C@@H]1C[C@]2(CC(c3cccc(Cl)c3)=NO2)CN1C(=O)[C@@H](NC(=O)CC1CCC2(CC1)OCCO2)C(C)(C)C)C(=O)C(=O)NC1CC1` [Compound 445], the values for the Ki (at HCV NS3 protease domain; in experiment [1]) were 100 to 500 nM and below 100 nM, respectively.

As to `CCC[C@H](NC(=O)[C@@H]1C[C@]2(CC(c3cccc(Cl)c3)=NO2)CN1C(=O)[C@@H](NC(=O)CC1CCCCC1)C(C)(C)C)C(=O)C(=O)NCCc1cccnc1` [Compound 447], the Ki on HCV NS3 protease domain is above 500 nM; in experiment [1] it was 100 to 500 nM.

With `CCC[C@H](NC(=O)[C@@H]1C[C@]2(CC(c3cccc(Cl)c3)=NO2)CN1C(=O)[C@@H](NC(=O)CC1CCCCC1)C(C)(C)C)C(=O)C(=O)N[C@H](C)CC` [Compound 452], the Ki on HCV NS3 protease domain was above 500 nM; in experiment [1], 100 to 500 nM.

With `C=C[C@@H]1C[C@]1(NC(=O)[C@@H]1C[C@]2(CC(c3cccc(Cl)c3)=NO2)CN1C(=O)[C@@H](NC(=O)NC(C)(C)C)C(C)(C)C)C(=O)O` [Compound 457], the Ki (at HCV NS3 protease domain; in experiment [1]) was above 500 nM throughout.

Turning to `CCC[C@H](NC(=O)[C@@H]1C[C@]2(CC(c3cccc(Cl)c3)=NO2)CN1C(=O)[C@@H](NC(=O)CC1CCCCC1)C(C)(C)C)C(=O)C(=O)NCCC1C(=O)Nc2ccccc21` (some centres unmarked) [Compound 458], the Ki (on HCV NS3 protease domain; in experiment [1]) was above 500 nM throughout.

As to `CCCC[C@H](NC(=O)CC1CCCCC1)C(=O)N1C[C@@]2(CC(c3cccc(Cl)c3)=NO2)C[C@H]1C(=O)N[C@@H](CCC)C(=O)C(=O)NC1CC1` [Compound 459], the Ki on HCV NS3 protease domain was above 500 nM; in experiment [1], 100 to 500 nM.

Consider `C=CCOC(=O)N[C@H](C(=O)N1C[C@@]2(CC(c3cccc(Cl)c3)=NO2)C[C@H]1C(=O)N[C@]1(C(=O)O)C[C@H]1C=C)C(C)(C)C` [Compound 460], for which the Ki (at HCV NS3 protease domain; in experiment [1]) was above 500 nM throughout.

`CCC[C@H](NC(=O)[C@@H]1C[C@]2(CC(c3cccc(Cl)c3)=NO2)CN1C(=O)[C@@H](NC(=O)CC1CCCCC1)C(C)(C)C)C(=O)C(=O)NCc1ccncc1` [Compound 461]: the Ki is above 500 nM at HCV NS3 protease domain and 100 to 500 nM in experiment [1].

Regarding `CCC[C@H](NC(=O)[C@@H]1C[C@]2(CC(c3cccc(Cl)c3)=NO2)CN1C(=O)C(NS(=O)(=O)c1ccc(F)cc1)c1ccccc1)C(=O)C(=O)NC1CC1` (some centres unmarked) [Compound 466], the Ki (on HCV NS3 protease domain; in experiment [1]) was above 500 nM throughout.

For the compound `CCC[C@H](NC(=O)[C@@H]1C[C@]2(CC(c3cccc(Cl)c3)=NO2)CN1C(=O)[C@@H](NC(=O)CC1CC2CCC1C2)C(C)(C)C)C(=O)C(=O)NC1CC1` (some centres unmarked) [Compound 467], the Ki at HCV NS3 protease domain was 100 to 500 nM; in experiment [1] it was below 100 nM.

As to `CCC[C@H](NC(=O)[C@@H]1C[C@]2(CC(c3cccnc3OC)=NO2)CN1C(=O)[C@@H](NC(=O)CC1CCCCC1)C(C)(C)C)C(=O)C(=O)NC1CC1` [Compound 469], the values for the Ki (on HCV NS3 protease domain; in experiment [1]) were above 500 nM and 100 to 500 nM, respectively.

Take `CCC[C@H](NC(=O)[C@@H]1C[C@]2(CC(c3cccc(Cl)c3)=NO2)CN1C(=O)[C@H](NS(=O)(=O)c1ccc(C)cc1)c1ccccc1)C(=O)C(=O)NC1CC1` [Compound 476]: the Ki (on HCV NS3 protease domain; in experiment [1]) was 100 to 500 nM throughout.

For the compound `CCC[C@H](NC(=O)[C@@H]1C[C@]2(CC(c3cccc(Cl)c3)=NO2)CN1C(=O)CCN(c1ccccc1)S(=O)(=O)c1ccccc1)C(=O)C(=O)NC1CC1` [Compound 483], the Ki (on HCV NS3 protease domain; in experiment [1]) was above 500 nM throughout.

As to `CCC[C@H](NC(=O)[C@@H]1C[C@]2(CC(c3cccc(Cl)c3)=NO2)CN1C(=O)[C@@H](NC(=O)CC1CCCCC1)C(C)(C)C)C(=O)C(=O)NCCOc1ccccc1OC` [Compound 488], the Ki at HCV NS3 protease domain was above 500 nM; in experiment [1] it was 100 to 500 nM.

In the case of `CCC[C@H](NC(=O)[C@@H]1C[C@]2(CC(c3cccc(Cl)c3)=NO2)CN1C(=O)[C@@H](NS(=O)(=O)c1ccc(OC)cc1)C(C)C)C(=O)C(=O)NC1CC1` [Compound 489], the Ki on HCV NS3 protease domain was above 500 nM; in experiment [1] it was 100 to 500 nM.

Regarding `CCC[C@H](NC(=O)[C@@H]1C[C@]2(CC(c3cccc(Cl)c3)=NO2)CN1C(=O)[C@@H](NC(=O)CC1CCCCC1)C(C)(C)C)C(=O)C(=O)NC` [Compound 493], the Ki at HCV NS3 protease domain was 100 to 500 nM; in experiment [1] it was below 100 nM.

As to `CCC[C@H](NC(=O)[C@@H]1C[C@]2(CC(c3cccc(Cl)c3)=NO2)CN1C(=O)[C@@H](NC(=O)CC1CCCCC1)C(C)(C)C)C(=O)C(=O)N1CCCC1` [Compound 496], the Ki (at HCV NS3 protease domain; in experiment [1]) was above 500 nM each time.

With `CCC[C@H](NC(=O)[C@@H]1C[C@]2(CC(c3cc(Cl)c4c(c3)CCO4)=NO2)CN1C(=O)[C@@H](NC(=O)CC1CCCCC1)C(C)(C)C)C(=O)C(=O)NC1CC1` [Compound 499], the Ki (on HCV NS3 protease domain; in experiment [1]) was below 100 nM each time.

For `CCC[C@H](NC(=O)[C@@H]1C[C@]2(CC(c3ccc(OC)c(C)c3)=NO2)CN1C(=O)[C@@H](NC(=O)CC1CCCCC1)C(C)(C)C)C(=O)C(=O)NC1CC1` [Compound 500], the Ki on HCV NS3 protease domain was 100 to 500 nM; in experiment [1], below 100 nM.

On to `CCC[C@H](NC(=O)[C@@H]1C[C@]2(CC(c3cccc(Cl)c3)=NO2)CN1C(=O)C(NS(=O)(=O)c1ccccc1)c1ccccc1)C(=O)C(=O)NC1CC1` (some centres unmarked) [Compound 501], for which the Ki (on HCV NS3 protease domain; in experiment [1]) was above 500 nM each time.

Take `CCC[C@H](NC(=O)[C@@H]1C[C@]2(CC(c3cccc(Cl)c3)=NO2)CN1C(=O)[C@@H](NC(=O)CC1CCCCC1)C(C)(C)C)C(=O)C(=O)N[C@@H](C)C(O)(c1ccccc1)c1ccccc1` [Compound 507]: the Ki (at HCV NS3 protease domain; in experiment [1]) was above 500 nM each time.

With `CCCNC(=O)C(=O)[C@H](CCC)NC(=O)[C@@H]1C[C@]2(CC(c3cccc(Cl)c3)=NO2)CN1C(=O)[C@@H](NC(=O)CC1CCCCC1)C(C)(C)C` [Compound 508], the Ki (on HCV NS3 protease domain; in experiment [1]) was 100 to 500 nM in each case.

In the case of `C#CCCC(NC(=O)[C@@H]1C[C@]2(CC(c3cc(Cl)c(OC)cc3OC)=NO2)CN1C(=O)[C@@H](NC(=O)CC1CCOCC1)C(C)(C)C)C(=O)C(=O)NC1CC1` (some centres unmarked) [Compound 510], the Ki was 100 to 500 nM at HCV NS3 protease domain and below 100 nM in experiment [1].

As to `CCC[C@H](NC(=O)[C@@H]1C[C@]2(CC(c3cccc(Cl)c3)=NO2)CN1C(=O)[C@@H](NC(=O)CC1CCCCC1)C(C)(C)C)C(=O)C(=O)N1CC(F)(F)C1` [Compound 521], the Ki is 100 to 500 nM on HCV NS3 protease domain and below 100 nM in experiment [1].

With `CCC[C@H](NC(=O)[C@@H]1C[C@]2(CC(c3ccccc3)=NO2)CN1C(=O)[C@@H](NC(=O)CC1CCCCC1)C(C)(C)C)C(=O)C(=O)NC1CC1` [Compound 531], the Ki (on HCV NS3 protease domain; in experiment [1]) was 100 to 500 nM in each case.

As for `CCC[C@H](NC(=O)[C@@H]1C[C@]2(CC(c3cccc(Cl)c3)=NO2)CN1C(=O)[C@@H](NS(=O)(=O)c1ccc(OC)cc1)C(C)CC)C(=O)C(=O)NC1CC1` (some centres unmarked) [Compound 534], the Ki (at HCV NS3 protease domain; in experiment [1]) was above 500 nM throughout.

On to `CCC[C@H](NC(=O)[C@@H]1C[C@]2(CC(c3cccc(Cl)c3)=NO2)CN1C(=O)[C@@H](NC(=O)CC1CCCCC1)C(C)(C)C)C(=O)C(=O)N1CCC[C@H]1COC` [Compound 537], for which the Ki (at HCV NS3 protease domain; in experiment [1]) was above 500 nM in each case.

As for `CCC[C@H](NC(=O)[C@@H]1C[C@]2(CC(c3cccc(Cl)c3)=NO2)CN1C(=O)[C@@H](NC(=O)CC1CCCCC1)C(C)(C)C)C(=O)C(=O)NCCc1cccc(OC)c1` [Compound 540], the Ki (on HCV NS3 protease domain; in experiment [1]) was 100 to 500 nM each time.

With `CCC[C@H](NC(=O)[C@@H]1C[C@]2(CC(c3cccc(Cl)c3)=NO2)CN1C(=O)[C@@H](NC(=O)CC1(C)CCOCC1)C(C)(C)C)C(=O)C(=O)NC1CC1` [Compound 541], the Ki at HCV NS3 protease domain was 100 to 500 nM; in experiment [1] it was below 100 nM.

On to `CCC[C@H](NC(=O)[C@@H]1C[C@]2(CC(c3cccc(Cl)c3)=NO2)CN1C(=O)[C@@H](NC(=O)CC1CCCCC1)C(C)(C)C)C(=O)C(=O)N[C@@H](C)c1ccccc1` [Compound 546], for which the Ki (at HCV NS3 protease domain; in experiment [1]) was 100 to 500 nM each time.

With `CCC[C@H](NC(=O)[C@@H]1C[C@]2(CC(CC)=NO2)CN1C(=O)[C@@H](NC(=O)NC(C)(C)C)C(C)(C)C)C(=O)C(=O)NC1CC1` [Compound 559], the Ki (on HCV NS3 protease domain; in experiment [1]) was above 500 nM each time.
